For one compound, mortality results are on record in patent US20240217950A1, “PESTICIDALLY ACTIVE CYCLIC AMINE COMPOUNDS” (SYNGENTA CROP PROTECTION AG, priority 2021, published 2024).

For this assay, the system named is Tetranychus urticae (Two-Spotted Spider Mite). As to the kind of experiment: Tetranychus urticae (two-spotted spider mite) feeding/contact activity on bean leaf discs. The format is in vivo. To be noted: foliar, 192 h, application rate of 200 ppm, sprayed bean leaf discs, mixed population (mobile stages), 8 days after infestation. How it is done: Example B1: Tetranychus urticae (Two-Spotted Spider Mite)
Feeding/contact activity Bean leaf discs on agar in 24-well microtiter plates were sprayed with aqueous test solutions prepared from 10′000 ppm DMSO stock solutions. After drying the leaf discs were infested with a mite population of mixed ages. The samples were assessed for mortality on mixed population (mobile stages) 8 days after infestation.

As for `COCc1nc(OCc2cc(C(F)(F)F)ccc2F)c(C#N)cc1C(=O)N1CCC(c2noc(C)n2)CC1` [Compound P1.2, 2-[[2-fluoro-5-(trifluoromethyl)phenyl]methoxy]-6-(methoxymethyl)-5-[4-(5-methyl-1,2,4-oxadiazol-3-yl)piperidine-1-carbonyl]pyridine-3-carbonitrile], the mortality at 200 ppm is not below 80%.
